Source: patent publication US9458505B2, “Diagnosis of cowden and cowden-like syndrome by detection of decreased killin expression” (The Cleveland Clinic Foundation, priority 2011, dated 2016)

Legend:
[1] = tested on: KILLIN expression; assay: Quantitative RT-PCR of KILLIN expression in KILLIN-methylated patient lymphoblastoid cell lines after demethylation and/or histone deacetylase inhibition treatment; type: cell-based, human; settings: pooled result for decitabine and/or TSA; for patient cell lines in which KILLIN expression was restored: 7 of the 8 patient lymphoblastoid cell lines, decitabine 0.5 μM and/or TSA 200 nM; for KILLIN expression increase following exposure to decitabine and/or TSA: patient lymphoblastoid cell lines, decitabine 0.5 μM 96 hours and/or TSA 200 nM 48 hours, normalized to untreated counterpart set as 1, 95% confidence interval 1.4-18.1
Experimental: (§1) The quantitative reverse transcription PCRs were performed as previously described. Bennett et al., Cancer Res.; 67(10): 4657-4664 (2007). The study population included four controls and eight patients that were selected based on confirmed methylation status by bisulfite sequencing analysis and representation of the Cowden syndrome and Cowden-like syndrome condition.
(§2) The study population included eight patients that were selected based on confirmed methylation status by bisulfite sequencing analysis and representation of Cowden syndrome and Cowden-like syndrome condition. Demethylation treatment was performed with a cytosine analog, 5-aza-2′deoxycytidine (decitabine; Sigma), for 96 hours at 0.5 μM concentration with approximately 40% confluent suspension lymphoblastoid cells. Inhibition of histone deacetylation was performed with 200 nM concentration of Trichostatin A (TSA; Sigma) with approximately 40% confluent suspension lymphoblastoid cells for 48 hours, with or without 0.5 μM decitabine. The drug was changed daily, and the cells were collected for RNA isolation.

[2] = tested on: PTEN expression; assay: Quantitative RT-PCR of PTEN expression in KILLIN-methylated patient lymphoblastoid cell lines after demethylation and/or histone deacetylase inhibition treatment; type: cell-based, human; settings: seven of the eight patient lymphoblastoid cell lines; decitabine 0.5 μM and/or TSA 200 nM; pooled result for demethylation and/or inhibition of histone deacetylation
Experimental: as §1, §2

Row | Structure (SMILES) | patient cell lines in which KILLIN expression was restored [1] [%] | KILLIN expression increase following exposure to decitabine and/or TSA [1] [fold] | patient cell lines with significant decrease in PTEN expression [2] [%]
1 | CC(/C=C/C(=O)NO)=C\[C@@H](C)C(=O)c1ccc(N(C)C)cc1 [TSA, Trichostatin A] | 88 | 4.88 | 88
2 | Nc1ncn([C@H]2C[C@H](O)[C@@H](CO)O2)c(=O)n1 [decitabine, 5-aza-2′deoxycytidine] | 88 | 4.88 | 88
